Data taken from patent publication US20150164767A1, “Skin Collagen Enhancing Agent” (J-Oil Mills, Inc., priority 2011, published 2015).

Key:
[1] = tested on: normal human dermal fibroblasts; test: Type I collagen production by normal human dermal fibroblasts (ELISA, per unit protein); type: cell-based; conditions: for production amount of collagen (relative value, no sample = 100, per unit amount of protein): 1.5×10^−5 M, 48 hours culture, n=6, FIG. 1, t-test vs control; for Type I collagen amount (ng/μg protein) (average ± SD): 48 hours, n=6, control 8.91 ± 0.26, significant (<1%)
Protocol: Skin collagen enhancing activity of menaquinone-7 was compared with those of vitamin K1 and menaquinone-4, using normal human fibroblasts. A menaquinone-7 reagent (Wako Pure Chemical Industries, Ltd.) was used after purity validation by HPLC. The comparison was performed at a setting concentration of 1.5×10^−5 M, which is a maximum solubility of vitamin Ks in a cell culture system. Vitamin K1 (Wako Pure Chemical Industries, Ltd.) and menaquinone-4 (Sigma) were used after purity validation by HPLC.
Normal human dermal fibroblasts (manufactured by Kurabo Industries Ltd.) were inoculated on a 96-well microplate at a cell density of 2.0×10^4 cells per well using a Dulbecco's modified Eagle's medium (DMEM) (Sigma) containing 0.5% by weight of fetal bovine serum (FBS). The medium was replaced, 48 hours after the inoculation, by DMEM containing 0.5% by weight of FBS and menaquinone-7 in a concentration shown in Table 5. A test maximum concentration solution was prepared by dissolving menaquinone-7 in ethanol and diluting it 100 times with a DMEM containing 0.5% FBS. The testing method was confirmed to be valid using magnesium ascorbic acid phosphate (VC-PMg) as a positive control. The medium containing a sample was cultured for 48 hours, and the medium supernatant was collected and subjected to ELISA for measuring the amount of type I collagen. The cells were lysed in a 0.5% Triton X-100 solution, and the protein amount was measured.
A medium and a type I collagen solution for a standard curve were placed on each well of a high-absorption ELISA plate, and coating at 37° C. for 2 hours was performed, followed by blocking with a 1% bovine serum albumin (BSA) solution at 37° C. for 1 hour. Primary antibody reaction was performed using anti-human collagen type I antibody (rabbit) diluted with a 0.3% BSA solution at 37° C. for 1 hour. Secondary antibody reaction was performed using Histofine MAX-PO(R) (rabbit) diluted with a phosphate buffer at 37° C. for 1 hour. A phosphate-citrate buffer (0.1 M, pH 4.0) solution containing 0.3 mg/mL of 2,2′-azinobis(3-ethylbenzothiazoline-6-sulfonic acid)diammounium salt (ABTS) and 0.03% hydrogen peroxide was added thereto, followed by reaction for 20 min The absorbance of the reaction solution was measured at 405 nm with a microplate reader.
The type I collagen amount in the medium was determined from the standard curve prepared by measurement on the same ELISA plate, and the type I collagen amount per unit amount of protein was calculated by dividing the type I collagen amount in the medium by the total protein amount of the cells.
The test was performed at n=6 for each group containing a sample, and the results are each shown as an average +standard deviation. The statistical processing was performed by a Student t-test against the control group not containing the sample, and the symbol * indicates a significance level of less than 1%.
The collagen enhancing activities of menaquinone-7 for human dermal fibroblasts were investigated in the concentration range shown in Table 5. The test of each group containing a sample was performed at n=6, and the results are each shown as an average value. The statistical processing was performed by a Student t-test against the control group not containing the sample, and the symbol * indicates a significance level of less than 1%.

skin collagen = test: Skin collagen amount in rats fed MK7-containing diets (Sircol Collagen Assay Kit); type: in vivo, Crl:CD(SD)(SPF) rats; conditions: 90 days; for Type I collagen amount (μg/mg wet skin weight) (average ± SD): MK7-free 38.43 ± 4.56, not significant; for Rate of increase of collagen (%): vs MK7-free diet group
Protocol: Four-week old male Crl:CD(SD)(SPF) rats were habituated after arrival till the start of administration, including one week for quarantine. During the quarantine and habituation, general conditions were observed every day, and the weights were measured on the first day (the day following the arrival), the third day, and the seventh day. The rats were separated into four groups each consisting of five rats so that the total weight of each group was the same.
Rats were freely fed for 90 days with any one of three types of menaquinone-7-containing feeds by adding menaquinone-7 to rat standard diet AIN93G: high MK7 diet (menaquinone-7: 45.4 μg/g diet), moderate MK7 diet (menaquinone-7: 15 μg/g diet), and low MK7 diet (menaquinone-7: 4.54 μg/g diet); or MK7-free diet.
The rats were subjected to fasting on the last day and then dissected. The hair at the abdomen region was carefully shaved with hair clippers, and the skin including the derm was sampled. The skin was cut into about 100 mg pieces and they were exactly weighed. The skin collagen amount was measured with a skin collagen measurement kit (trade name: Sircol Collagen Assay Kit, manufactured by Biocolor). Increased amounts of collagen in three groups fed with the diet containing MK7 were compared with that in the group fed with the MK7-free diet as a control. The statistical processing was performed by a Student t-test. A significance level P<0.05 was determined as to have significant difference. […] In the table, the symbol * means a significant difference.

[2] = Vitamin K (MK-7) concentration in rat skin after feeding a menaquinone-7-containing diet; type: in vivo; conditions: Wistar rats, diet with menaquinone-7 150 μg/g, free feeding 90 days, average ± SD
Protocol: Wistar rats (male, 5-week old) were freely fed with purified feed AIN93G (manufactured by Oriental Yeast) for one week for habituation, and then separated into groups each consisting of three rats so that the total weight of each group was the same. Three rats in each group were freely fed with a rat standard diet (AIN93G) or a menaquinone-7-containing feed (menaquinone-7: 150 μg/g) composed of rat standard diet (AIN93G) and menaquinone-7 for 90 days. Then, vitamin K concentration in the skin was measured. Vitamin K was analyzed by high-performance liquid chromatography with post-column reduction using platinum black and fluorescence detection (Sato, et al., Biochim Biophys. Acta, 1622, 145-150, 2003).

Row | Structure (SMILES) | production amount of collagen (relative value, no sample = 100, per unit amount of protein) [1] | production amount of collagen ([1]; 6.0×10^−5 M) | Type I collagen amount (ng/μg protein) (average ± SD) ([1]; 0.5 × 10^−6M) | Type I collagen amount (ng/μg protein) (average ± SD) ([1]; 0.5 × 10^−6M, listed as menaquinone-7) | Type I collagen amount (ng/μg protein) (average ± SD) ([1]; 1 × 10^−5M) | Type I collagen amount (ng/μg protein) (average ± SD) ([1]; 1 × 10^−6M) | Type I collagen amount (ng/μg protein) (average ± SD) ([1]; 3 × 10^−6M) | menaquinone-7 amount necessary for promoting collagen production ([1]; conversion of 0.5×10^−6 M) | menaquinone-7 amount necessary for promoting collagen production ([1]; human dermal fibroblasts, lowest concentration tested) | Type I collagen amount (μg/mg wet skin weight) (average ± SD) (skin collagen; MK7 4.54 μg/g feed) | Rate of increase of collagen (%) (skin collagen; MK7 4.54 μg/g feed) | Type I collagen amount (μg/mg wet skin weight) (average ± SD) (skin collagen; MK7 15.0 μg/g feed) | Rate of increase of collagen (%) (skin collagen; MK7 15.0 μg/g feed) | Rate of increase of collagen (%) (skin collagen; MK7 45.4 μg/g feed) | amount of collagen in skin, dose dependence (skin collagen; oral administration, 4.54 to 45.4 μg/g feed) | MK-7 concentration (ng/g) in skin [2]
1 | CC(C)=CCC/C(C)=C/CC/C(C)=C/CC/C(C)=C/CC1=C(C)C(=O)c2ccccc2C1=O [Menaquinone-4, menaquinone-4, reference compound] | only menaquinone-7 significantly increased | did not increase at all | – | – | – | – | – | – | – | – | – | – | – | – | – | –
2 | CC(C)=CCC/C(C)=C/CC/C(C)=C/CC/C(C)=C/CC/C(C)=C/CC/C(C)=C/CC/C(C)=C/CC1=C(C)C(=O)c2ccccc2C1=O [Menaquinone-7, menaquinone-7] | significantly increased | – | 10.66 ± 0.48 ng/μg protein | significantly promotes production of type I collagen | 11.03 ± 0.23 ng/μg protein | 10.26 ± 0.44 ng/μg protein | 10.41 ± 0.49 ng/μg protein | 325 ng/g | 500 nM | 40.97 ± 6.69 μg/mg wet skin weight | 6.6% | 43.33 ± 2.42 μg/mg wet skin weight | 12.8% | 17.6% | tendency of dose-dependently increasing the amount of collagen | 427 ± 243 ng/g
3 | CC1=C(C/C=C(\C)CCC[C@H](C)CCC[C@H](C)CCCC(C)C)C(=O)c2ccccc2C1=O [vitamin K1, reference compound] | only menaquinone-7 significantly increased | – | – | – | – | – | – | – | – | – | – | – | – | – | – | –
